From publication PMC9031226, “Preclinical Therapeutic Assessment of a New Chemotherapeutics [Dichloro(4,4’-Bis(2,2,3,3-Tetrafluoropropoxy) Methyl)-2,2’-Bipryridine) Platinum] in an Orthotopic Patient-Derived Xenograft Model of Triple-Negative Breast Cancers” (Pharmaceutics, 2022)

Tested on: MDA-MB-231 cells
Assay: Reactive oxygen species detection (DCF-DA, flow cytometry)
Assay type: cell-based, human
Details: MDA-MB-231, 8 h
Method: DCF-DA is highly fluorescent and can label ROS for quantitative assessment using flow cytometer with excitation/emission at 485 nm/535 nm. To harvest and collect adherent and suspended cells, we first collected suspended cells from supernatant by centrifuging at 3000 rpm for 5 min at 4 °C and then adding trypsin to detach these adherent cells in the 6-well plate, followed by removing suspended cells via centrifugation. Both cell pellets after centrifugation were collected and re-suspended in PBS for subsequent quantitative analysis of ROS productions from cells treated either with CDDP or TFBPC using flow cytometer by gating the positive area in the histogram.

Question: For FC(F)C(F)(F)COCc1ccnc(-c2cc(COCC(F)(F)C(F)F)ccn2)c1.[Cl][Pt][Cl] [TFBPC], which ROS production is on record?
Answer: apparent increase in ROS production
